Patent publication US20040019060A1, “Sigma receptor ligands and their medical uses” (priority 2000, published 2004)
Like-named read-outs stand apart in the source and are kept apart here.

Tests used:
[1] = test system: endothelial cells; test: Endothelial cell proliferation assay (cell phosphatase activity); type: cell-based, human; details: for Rescue from Rimcazole inhibition of proliferation: 4 μM agonist added together with 4 μM Rimcazole; for Stimulatory activity on cell proliferation: agonist ligands alone; for Agonists: stimulation: increase in cell number relative to controls on day 4; for IC50: concentration of drug required to inhibit survival and/or proliferation by 50%, read-out: Antagonists: IC50
Experimental: HUVECS (human umbilical vein endothelial cells) obtained from TCS Biologicals were grown in TCS Biologicals Large Vessel Endothelial Cell Basal Medium (ZHM-2951) with supplement (ZHS-8945). This contains heparin, hydrocortisone, human EGF, human bFGF (concentrations not disclosed by the Company) with added 2% FCS, pH 7.4.
(§1) HMEC-1 (immortalised human microvascular endothelial cells) obtained from Dr Colin Porter, Chester Beatty Laboratories were grown in TCS Biologicals Microvascular Endothelial Cell Basal Medium (ZHM-2946) with supplement (ZHS-8947). This contains heparin, hydrocortisone, human EGF, human bFGF, dibutyryl cyclic AMP (concentrations not disclosed by the Company) with added 5% FCS, pH 7.4.
as §1, with “HDMECS (human dermal” for “HMEC-1 (immortalised human”, “TCS Biologicals” for “Dr Colin Porter, Chester Beatty Laboratories”
The cells were seeded at 2×10^4 ml in 96 well microtitre plates on day 0, and sigma ligands were added in fresh medium on day 1. […] PCS at the concentrations indicated was present throughout the assay. Each concentration of drug was assayed in triplicate, and the vehicle concentration was kept constant.
Viable cells present at the end of the assay were estimated by determining phosphatase activity as follows: 100Xl of paranitrophenylphosphate (Sigma) at 3 mg/ml in phosphate buffer pH 5.5 containing 0.1% Triton X100 was added to wells and incubated for 2hr at 37° C. The reaction was stopped with 1N NaOH. Released paranitrophenol, indicative of attached cell number, was measured by reading the absorbance at 405 nm in a Titertek multiscan. […] The 100% value is the mean absorbance of control wells treated with vehicle alone; the 0% value is that of wells containing medium only.

[2] = test system: Human endothelial cells co-cultured with human "feeder" fibroblasts; test: In vitro angiogenesis assay (pseudocapillary formation, anti-CD31 staining); type: cell-based
Experimental: Human endothelial cells co-cultured with human “feeder” fibroblasts on a fibrin matrix in 24 well plates were incubated with ligands at different concentrations. The ligands were added on days 0, 4, 7 and 9 and the experiment terminated on day 11. On each plate, 2 wells served as untreated controls, and 2 received suramin at […] as a standard angiogenesis inhibitor. Each concentration of ligand was assayed in triplicate. On day 11, the wells were washed, and the endothelial cells fixed and stained with anti-CD31 (PECAM-1) antibody and visualised with alkaline phosphatase conjugated second antibody. The cultures were scanned for image analysis and quantitation using a DataCell image analysis system and ImagePro software. Angiogenesis was expressed as the area and/or perimeter of “pseudocapillaries” formed in the gel by the endothelial cells.

[3] = test system: Human adult dermal microvascular endothelial cells; test: MTS cell viability/proliferation assay, microvascular endothelial cells
[4] = molecular target: sigma-1 sites (Homo sapiens, UniProt Q99720); details: cited from earlier work; for affinity for sigma-1 versus sigma-2 sites / selectivity for sigma sites compared to other receptors: Matsumoto et al 1995; for selectivity for sigma sites compared to other receptors: vs opiate, phencyclidine, muscarinic, dopamine, alpha-1-, alpha-2-, beta-adrenoceptor, 5HT-1, 5-HT-2
[5] = Pharmacokinetics in mice (LCMS of plasma, liver, spleen); type: in vivo, Balb/C mice; details: not shown
Experimental: Prior to undertaking any in vivo experiments with Rimcazole to study effects on tumour growth and angiogenesis, it was necessary to determine its pharmacokinetics in order that doses in the active range could be administered. Rimcazole (dissolved in water) was administered at 40 mg/kg i.p to Balb/C mice. Heparinised blood samples were taken at 5, 15 and 30 minutes, 1,2,4,6, and 24 hours and plasma separated. Tissue samples were also taken at some time points for analysis. Rimcazole samples were initially analysed by LCMS.
Column: Supelco 50×4.6 mm ABZ+ with 5 μ packing.
Mobile phase: A=HPLC grade methanol, B=0.1% formic acid in water.
Full scan mode: mass range analysed 50 to 850 amu.
MSMS mode: filtered ions were 322 (Rimcazole), 338 (Rimcazole+oxygen), and 514 (glucuronide of 338 metabolite).

[6] = test system: sponge angiogenesis; test: Rat sponge angiogenesis model (125I albumin vascular volume); type: in vivo, CBH/cbi rats
Experimental: In order to study neoangiogenesis in the absence of tumours, sterile polyether sponges were implanted into animals. This technique, developed in Cambridge, has been widely used to study angiogenesis. We have employed a triple radiotracer technique to study different aspects of the angiogenic process.
CBH/cbi rats were implanted s.c. with sterile 13 mm diameter sponges as above. They were treated i.p. with Rimcazole (30 mg/kg/day) for 14 days from day 0. Five minutes before termination, they were injected with ^125I labelled rat albumin (a macromolecule which, in the short term remains intravascular). The amount of radioiodine in the sponges is an index of vascular volume.

[7] = test system: Human mammary carcinoma (MDA MB 468) cells; test: MTS cell viability/proliferation assay, mammary carcinoma cells; type: cell-based; details: 10 micromolar, low passage cells, FIG. 9
Experimental: Human mammary carcinoma (MDA MB 468) cells were obtained from TCC, Manassas, Va., USA; catalogue number HTB-132; cells were grown in accordance with the manufacturer's instructions.
(§2) Cell density was checked microscopically at time zero.

[8] = test system: human adult dermal fibroblasts; test: MTS cell viability/proliferation assay, dermal fibroblasts; type: cell-based
Excerpt: (§3) (Tissue in all cases was from healthy donors). […] Primary cell types included:
as §2

[9] = test system: Human mammary epithelial cells; test: MTS cell viability/proliferation assay, mammary epithelial cells; type: cell-based; details: 10 micromolar, up to 48 hours, FIG. 9
Excerpt: as §3
Human mammary epithelial cells (catalogue number CC-2551; stain positive for cytokeratins 14, 18 and 19).
as §2

sigma-1 sites, sequence (Q99720 whole entry): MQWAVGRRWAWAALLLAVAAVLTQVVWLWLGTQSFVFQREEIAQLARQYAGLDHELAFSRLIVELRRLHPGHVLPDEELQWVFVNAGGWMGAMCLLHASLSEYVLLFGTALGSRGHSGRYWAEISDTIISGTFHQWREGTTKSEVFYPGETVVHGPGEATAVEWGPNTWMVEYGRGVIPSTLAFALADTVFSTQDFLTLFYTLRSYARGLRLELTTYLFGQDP

For `C=CCN1CCC2(C)c3cc(O)ccc3CC1C2C` (single isomer, unassigned; (+)) [(+)-SKF-10047, (+)-N-allyl normetazocine], the “Rescue from Rimcazole inhibition of proliferation” value ([1]; FIG. 3) was “slight increase in survival”, the “Rescue from Rimcazole inhibition: numbers of endothelial cells” value ([1]; 10 μM agonist added together with 4 μM Rimcazole, FIG. 3) was “the same as in control untreated cultures” and the “Stimulatory activity on cell proliferation” value [1] was “moderate stimulatory activity”. For the same compound, the “Agonists: stimulation” value ([1]; at 100 μM) was 110% at 100 μM.
In the case of `CC(C)=CCN1CCC2(C)c3cc(O)ccc3CC1C2C` (single isomer, unassigned; (+)) [(+)pentazocine, (+)-pentazocine], the “Rescue from Rimcazole inhibition of proliferation” value ([1]; FIG. 3) is reported as “slight increase in survival”, the “Stimulatory activity on cell proliferation” value [1] is reported as “moderate stimulatory activity” and the “Agonists: stimulation” value ([1]; at 4 μM) is reported as 120% at 4 μM. The “Rescue of in vitro angiogenesis inhibition by 4 μM Rimcazole” value ([2]; equimolar concentration co-incubated, FIG. 5c) was “can be prevented”, the “Prevention of cytotoxic effect of IPAG and rimcazole” value ([3]; 10 micromolar co-administered with 10 micromolar IPAG or rimcazole, FIG. 11) was “completely prevented” and the “Cell proliferation rate on co-administration with rimcazole and IPAG” value ([3]; co-administration, FIG. 11) was “increased cell proliferation rates above control values”.
In the case of `CN(C)CCN(C)CCc1ccc(Cl)c(Cl)c1` [BD1047, N(−)[2-(3,4-dichlorophenyl)ethyl]-N-methyl-2-(dimethylamino)ethylamine], the IC50 [1] is given as 74 µM, the “affinity for sigma-1 versus sigma-2 sites” value [4] is given as “preferential affinities for sigma-1 compared to sigma-2” and the “selectivity for sigma sites compared to other receptors” value [4] is given as “marked selectivity”.
For `CN1CCN(CCc2ccc(Cl)c(Cl)c2)CC1` [BD1063, 1(−)[2-(3,4-dichlorophenyl)ethyl]-4-methylpiperazine], the IC50 ([1]; Homo sapiens, Endothelial cell) is given as 71 µM, the “affinity for sigma-1 versus sigma-2 sites” value [4] is given as “preferential affinities for sigma-1 compared to sigma-2” and the “selectivity for sigma sites compared to other receptors” value [4] is given as “marked selectivity”.
For `N=C(Nc1ccc(I)cc1)NC1C2CC3CC(C2)CC1C3` (stereo not shown) [IPAG, 1-(4-iodophenyl)-3-(2-adamantyl)guanidine], the IC50 ([1]; Homo sapiens, Endothelial cell) was 11 µM, the “Inhibition of endothelial cell proliferation compared with Rimcazole” value ([1]; not shown) was “as effective as Rimcazole” and the “Inhibition of pseudocapillary formation (in vitro angiogenesis)” value ([2]; FIG. 4, 5a, 5b angiogenesis area) was “very effective in inhibiting”. For the same compound, the “Pharmacokinetics compared with Rimcazole” value [5] was “similarly favourable PK”, the “Vascular volume of normal organs (liver and kidney)” value ([6]; 30 mg/kg/day for 14 days) was “unaffected” and the “Neoangiogenesis in sponges (vascular volume, radiolabelled albumin)” value ([6]; 30 mg/kg/day for 14 days after implantation, FIG. 7b) was “reduced”. For the same compound, the “Cell killing (MTS viability)” value [7] was “no surviving cells remained after 24 hours”, the “Survival and proliferation (MTS)” value ([8]; 10 micromolar, up to 48 hours, FIG. 9) was “continued to proliferate vigorously” and the “Tolerance of fibroblasts over a range of concentrations (MTS)” value ([8]; 100 micromolar to 1 nanomolar, FIG. 10) was “slightly less tolerant of high concentrations”. For the same compound, the “Survival and proliferation (MTS)” value [9] was “continued to proliferate vigorously”, the Ki ([4]; Whittemore et al 1997, read-out: inhibition constant for sigma-1 sites) was about 0.0028 µM and the cytotoxicity at 10 µM ([3]; Homo sapiens, Endothelial cell, read-out: Reduction in viable cell numbers compared to baseline values) was 60 to 80%.
